Laboratory results from patent US20040242870A1, “Antiviral methods and compounds” (priority 2000, published 2004).
Like-named read-outs stand apart in the source and are kept apart here.

How the values were obtained:
PBMCs = experiment: PBMC cytotoxicity in time-of-addition assay; assay type: cell-based, Human
Excerpt: (§1) Human peripheral blood mononuclear cells from a minimum of 2 donors, that have been blasted with PHA and IL-2, were counted, viability determined by Trypan Blue dye exclusion and mixed in equal ratios. Pooled donors were used to minimize the variability observed between individual donors which results from quantitative and qualitative differences in HIV infection and overall response to the PHA and IL-2 of primary lymphocyte populations. The cells were resuspended at 1×10^6 cells/mL in RPMI 1640 without phenol red supplemented with 15% Fetal Bovine Serum (heat inactivated), 2 mM L-glutamine, 100 U/mL penicillin, 100 μg/mL streptomycin, 10 μg/Ln gentamycin and IL-2 (20 U/mL, R&D Systems, Minneapolis, Minn.). Fifty microliters of cells were then distributed to the inner 60 wells of a 96 well round bottom microtiter culture plate in a standard format developed by the Infectious Disease Research department of Southern Research Institute. Each plate contains cell control wells (cells only), virus control wells (cells plus virus), and experimental wells (drug plus cells plus virus). Alternatively, cells were cultured in T25 cm^2 or T75 cm^2 tissue culture flasks at a starting density of 1×10^6 cells per ml. Serially diluted compounds were added to the microtiter plate or tissue culture flask followed by the appropriate pre-titered strain of HIV-1. For virus replication inhibition experiments the HIV-1 strain RoJo was used. This is a low passage presumable subtype B pediatric isolate with a syncytium inducing (SI) phenotype in MT-2 cells isolated by Southern Research Institute personnel. All samples were assayed in triplicate where possible with an accompanying determination of compound toxicity. The final volume per well in the microtiter plates was 200 μL. The final volume in the tissue culture flask varied depending upon experimental design and flask size. Assays were incubated for 6 days in a humidified atmosphere at 37° C., 5% CO2, after which supernatants were collected, for analysis of RT activity and cell viability by MTS dye reduction. Culture were also examined microscopically, any abnormalities noted, and in the case of tissue culture flasks cell counts and viability determined by Trypan Blue Dye exclusion.
Time-of-addition assays were performed with PBMCs in two ways. For both assays, PBMCs were isolated and cultured under the conditions as described above. Time-of-addition assays were carried out in either a tissue culture flask format (T-75 cm^2) or in microtiter wells. In both cases due to the lack of plastic adherence and heterogeneity of the PBMC population for susceptibility to infection, it was not possible to use complete removal of virus following a timed adsorption to synchronize the infection and limit the assay to a single round of infection. Therefore, serial washing by partial removal of the media was used to reduce the concentration of virus and compound (if required) in the assay. Compound addition in relationship to antiviral activity was either assessed over a short addition interval immediately before or after virus addition or for up to 72 h post infection. For all assays virus replication was assessed at 6 days of culture by determining RT expression in cell-free supernatants. In the tissue culture flask format cells were counted and Trypan Blue Dye exclusion used to monitor compound cytotoxicity. Cell viability in the 96 well microtiter plate format was determined by MTS dye reduction. AZT was used as a positive control.
At assay termination the assay plates were stained with the soluble tetrazolium-based dye MTS (CellTiter96® Reagent Promega) to determine cell viability and quantify compound toxicity. MTS is metabolized by the mitochondria enzymes of metabolically active cells to a soluble formazan product, allowing the rapid quantitative analysis cell viability and compound cytotoxicity. […] At termination of the assay 20 μL of MTS reagent was added per well and incubated for 4 h at 37° C. […]

HIV-1 = experiment: HeLa CD4 LTR β-gal HIV-1 attachment assay; assay type: cell-based; conditions: for IC50: Human immunodeficiency virus 1, HeLa; for β-galactosidase production versus background: cells alone+compounds, at all times
Protocol: The attachment assay was performed with the HeLa CD4 LTR , β-gal cells available from the AIDS Research and Reference Reagent Repository. […] HeLa CD4 LTR β-gal cells express cell surface CD4 and contain an LTR β-galactosidase reporter construct. Upon infection either the Tat protein incorporated into the virion or new Tat produced following virus integration and transcription trans-activates the LTR β-gal reporter, leading to expression of the β-galactosidase enzyme. HeLa CD4 LTR β-gal cells are routinely cultured with the required selection antibiotics and screened for mycoplasma contamination. Twenty-four h prior to initiation of the assay cells were trypsinized, counted and 1×10^4 cells placed in a 0.2 cm well in media without selection antibiotics. […] A known titer of virus was then added to the wells and the incubation continued for 1 h. At the end of the incubation the wells were washed 6 times with media and the culture continued for 48 h. At 48 h the wells were washed one time with PBS and β-galactosidase enzyme expression determined by chemiluminescence per manufacturers instructions (Tropix Gal-screen™, Tropix, Bedford, Mass.). Compound toxicity was monitored on sister plates using MTS dye reduction.

HIV-1 strain RoJo = experiment: PBMC time-of-addition assay (RT in cell-free supernatant at 6 days); assay type: cell-based; conditions: for increase in IC50 (loss in potency): 24 h pretreatment; for IC50: Human immunodeficiency virus 1, PBMC
Protocol: Peripheral blood monocular cells (PBMCs) were obtained from normal hepatitis and HIV-1 negative donors by ficoll hypaque gradient separation. The mononuclear cells were washed to remove residual separation media, counted, viability determined and resuspended in RPMI 1640 medium supplemented with 15 % FBS (heat inactivated), 2 mM L-glutamine, 100 U/mL penicillin, 100 μg/mL streptomycin, and 10 μg/mL gentamycin with 2 μg/mL phytohemagluttin (PHA) at 1×10^6 cells/mL. The cells were cultured for 48 to 72 h at 37° C., 5% CO2. Following incubation, cells were collected by centrifugation, washed and resuspended in RPMI 1640 supplemented with 15% FBS (heat inactivated), 2 mM L-glutamine, 100 U/mL penicillin, 100 μg/mL streptomycin, and 10 μg/mL gentamycin with 20 U/mL recombinant IL-2 (R & D Systems, Minneapolis, Minn.). IL-2 was included in the culture medium to maintain the cell division initiated by the PHA mitogenic stimulation, and promote optimal growing conditions for the PBMCs. The cultures were then maintained until use by ½ culture volume change with fresh IL-2 containing medium every 3 days.
as §1
Time-of-addition assays were performed with PBMCs in two ways. For both assays, PBMCs were isolated and cultured under the conditions as described above. Time-of-addition assays were carried out in either a tissue culture flask format (T-75 cm^2) or in microtiter wells. In both cases due to the lack of plastic adherence and heterogeneity of the PBMC population for susceptibility to infection, it was not possible to use complete removal of virus following a timed adsorption to synchronize the infection and limit the assay to a single round of infection. […]

[1] = −4 h pre (relative to infection)
[2] = Experiment 1, pretreat 4 h, read-out: IC50
[3] = Experiment 1, pretreat 24 h, read-out: IC50
[4] = Experiment 2, pretreat 4 h, read-out: IC50
[5] = Experiment 2, pretreat 24 h, read-out: IC50
[6] = 4 h, −4 h pre (relative to infection)
[7] = pre-treat 0 h prior to infection
[8] = pre-treat 2 h prior to infection
[9] = pre-treat 4 h prior to infection
[10] = pre-treat 24 h prior to infection

Row | SMILES | TC50 (PBMCs; 6 h post infection) [µM] | TC50 (PBMCs; at infection) [µM] | TC50 (PBMCs; [1]) [µM] | IC50 (HIV-1; [2]) [µM] | IC50 (HIV-1; [3]) [µM] | IC50 (HIV-1; [4]) [µM] | IC50 (HIV-1; [5]) [µM] | β-galactosidase production versus background (HIV-1) | increase in IC50 (loss in potency) (HIV-1 strain RoJo) | IC50 (HIV-1 strain RoJo; [6]) [µM] | IC50 (HIV-1 strain RoJo; 6 h, 6 h post infection) [µM] | IC50 (HIV-1 strain RoJo; at infection) [µM] | IC50 (HIV-1 strain RoJo; [7]) [µM] | IC50 (HIV-1 strain RoJo; [8]) [µM] | IC50 (HIV-1 strain RoJo; [9]) [µM] | IC50 (HIV-1 strain RoJo; [10]) [µM] | other results
1 | COc1cc(C(C)(C)CCCC(C)C)cc(OC)c1OC [IG-07, 1-(1,1,5Trimethylhexyl)-3,4,5-trimethoxybenzene] | >100 | >100 | >100 | > 50 | > 50 | > 50 | > 50 | suppressed β-galactosidase production below background | approximately 2 fold | 39.5 | 46.1 | 67 | 6.9 | 6.1 | 5.3 | 10.8 | IC50 (HIV-1; Experiment 1, pretreat 0 h, read-out: IC50): > 50 µM; IC50 (HIV-1; Experiment 2, pretreat 0 h, read-out: IC50): 16 µM; transient suppression of virus replication (HIV-1; at lower concentrations of compounds, two independent experiments): observed consistently
2 | C=C(C)[C@@H]1CCC(C)=C[C@H]1c1c(O)cc(CCCCC)cc1O [Cannabidiol, reference compound] | >100 | >100 | >100 |  |  |  |  | suppressed β-galactosidase production below background | at 4 h then a 17-fold | 12.1 | 12.1 | 13.8 | 0.58 | 5 | 1.5 | 10.5 | loss of activity (potency) (HIV-1 strain RoJo; 2 h pre-treatment, listed as cannabidiol): approximately 10 fold; regain of potency (decrease in IC50) (HIV-1 strain RoJo; 4 h pretreatment): activity at 2, regain 3.3-fold; regain of potency (decrease in IC50) (HIV-1 strain RoJo; 4 h pretreatment, listed as cannabidiol): 3.3 fold; increase in IC50 (loss in potency) (HIV-1 strain RoJo; listed as cannabidiol): 17 fold
3 | CC(C)=CCCC1(C)CCc2c(O)cc(C(C)(C)CCCC(C)C)cc2O1 (centres unmarked) [IG-08, 3,4-Dihydro-2-methyl-2-(4-methyl-3-pentenyl)-7-(1,1,5-trimethylhexyl)-2H-1-benzopyran-5-ol] | >100 | >100 | >100 | 10.8 | 7.4 | 11 | 2.6 | suppressed β-galactosidase production below background |  | 6.2 | 22.5 | 15.7 | 14.2 | 10.4 | 4.1 | 11.9 | IC50 (HIV-1; Experiment 1, pretreat 0 h): 16 µM; IC50 (HIV-1; Experiment 2, pretreat 0 h): 0.9 µM; Comment: suppression of β-galactosidase activity (HIV-1; pretreat 0 h): Suppression of μ-galactosidase; Comment: suppression of β-galactosidase activity (HIV-1; pretreat 4 h): Suppression of μ-galactosidase; Comment: suppression of β-galactosidase activity (HIV-1; pretreat 24 h): Suppression of μ-galactosidase; decrease in IC50 (HIV-1 strain RoJo; 4 h pretreatment): 4-fold decrease in
